Read-outs that look alike come from different tables or passages of the source.
Columns and labels:
[1] = test system: castration resistant metastatic prostate cancer; assay: Randomized clinical study of cabazitaxel vs mitoxantrone, each with prednisone or prednisolone: efficacy; type: in vivo, human
Procedure: A clinical study was performed wherein patients received either treatment with cabazitaxel or the reference treatment based on mitoxantrone each combined with prednisone or prednisolone.
More specifically, patients over 18 years of age with metastatic castration resistant metastatic prostate cancer either measurable by RECIST criteria or non-measurable disease with rising PSA levels or appearance of new lesions, ECOG (Eastern Cooperative Oncology Group) performance stage 0-2, and adequate organ function (patients had to have neutrophils >1,500 cells/mm^3, platelets >100,000 cells/mm^3, hemoglobin >10 g/dL, creatinine <1.5×upper limit of normal (ULN), total bilirubin <1×ULN, AST <1.5×ULN, and ALT <1.5×ULN) who had had prior hormone therapy, chemotherapy, and radiotherapy, but had progressive during or after docetaxel treatment (cumulative dose ≥225 mg/m^2) were randomized to 10 mg/day of prednisone with either mitoxantrone 12 mg/m^2 or cabazitaxel 25 mg/m^2, both administered every 3 weeks.
Patients with a history of congestive heart failure, or myocardial infarction within the last 6 months, or patients with uncontrolled cardiac arrhythmias, angina pectoris, and/or hypertension were not included in the study.
720 patients were planned to be included in the clinical study: 360 in each cabazitaxel+prednisone and mitoxantrone+prednisone group. Seven hundred and fifty-five patients (755) (median age 68; 84% white) were actually enrolled, 378 in the cabazitaxel and prednisone/prednisolone group and 377 in the mitoxantrone and prednisone/prednisolone group. The maximal number of treatment cycles was 10 for cabazitaxel and 10 for mitoxantrone. The median number of treatment cycles was 6 for cabazitaxel and 4 for mitoxantrone. The median prior dose of docetaxel treatment was 576 mg/m^2 for the cabazitaxel group and 529 mg/m^2 for the mitoxantrone group. Median follow-up was 12.8 months.
The measurements of the results are performed via the same tests as at inclusion. MRI and spiral computed tomographic (CT) scans are preferably used.
The results are evaluated according to the following criteria (cf RECIST guideline): • overall survival (OS): the time from inclusion to the study to the date of death complete response (CR): disappearance of the lesions • partial response (PR): at least 30% reduction of the largest diameter of the lesion progression (PD): at least 20% increase in the sum of the largest diameter of the lesion or appearance of one or more new lesions • stable disease (SD): reduction of the tumour insufficient to be included in PR and increase of the tumour insufficient to be included in PD.
The confirmations of the measurements are made at least 4 weeks after the response criterion has been established for the first time.
The progression-free survival (PFS) is the time from inclusion in the study and the date of progression or death when the progression is either an increase of the PSA, or of the tumour, or of the pain.

[2] = Population pharmacokinetic analysis in patients; type: in vivo, human; conditions: for Cmax: CV 107%; for half-life: 1-hour intravenous infusion, 3-compartment PK model
Procedure: A population pharmacokinetic analysis was conducted in 170 patients with solid tumors at doses ranging from 10 to 30 mg/m^2 weekly or every 3 weeks.

[3] = test system: CYP3A; assay: Metabolism of cabazitaxel
Source text: Concomitant administration of strong CYP3A inhibitors (for example, ketoconazole, itraconazole, clarithromycin, atazanavir, indinavir, nefazodone, nelfinavir, ritonavir, saquinavir, telithromycin, voriconazole) may increase cabazitaxel concentrations. Therefore co-administration of cabazitaxel with strong CYP3A inhibitors should be avoided. Caution should be exercised with concomitant use of moderate CYP3A inhibitors. One aspect of the invention is a method of treating a patient for prostate cancer comprising determining whether the patient is undergoing treatment with a CYP3A inhibitor, discontinuing treatment with a CYP3A inhibitor, and then administering cabazitaxel to the patient.

Q: What does the source list for CO[C@H]1C(=O)[C@]2(C)[C@@H](OC)C[C@H]3OC[C@@]3(OC(C)=O)[C@H]2[C@H](OC(=O)c2ccccc2)[C@]2(O)C[C@H](OC(=O)[C@H](O)[C@@H](NC(=O)OC(C)(C)C)c3ccccc3)C(C)=C1C2(C)C [cabazitaxel, 4α-acetoxy-2α-benzoyloxy-5β,20-epoxy-1β-hydroxy-7β,10β-dimethoxy-9-oxo-11-taxen-13α-yl (2R,3S)-3-tert-butoxycarbonyl-amino-2-hydroxy-3-phenylpropionate]?
A: Overall survival Hazard ratio (95% CI) ([1]; CbzP vs MP, intention-to-treat): 0.70; PFS Hazard ratio (95% CI) ([1]; CbzP vs MP, intention-to-treat): 0.74; reduction in risk of death ([1]; cabazitaxel vs mitoxantrone, corresponding to hazard ratio 0.70): 30%; Discontinuation of study treatment for disease progression, (%) ([1]; intention-to-treat): (47.6) %; Discontinuation of study treatment for disease progression, no. ([1]; intention-to-treat, N = 377 mitoxantrone, N = 378 cabazitaxel): 180; Overall survival Median ([1]; intention-to-treat, 25 mg/m^2 cabazitaxel or 12 mg/m^2 mitoxantrone every 3 weeks with prednisone): 15.1 months; PFS Median ([1]; intention-to-treat, earliest progression in tumor, PSA or pain): 2.8 months; dose proportionality ([2]; 10 to 30 mg/m^2, patients with advanced solid tumors): No major deviation from the dose proportionality; volume of distribution (Vss) ([2]; at steady state, for a patient with a median BSA of 1.84 m^2): 2,643 L/m^2; plasma clearance ([2]; for a patient with a median BSA of 1.84 m^2): 26.4 L/h/m^2; Tmax ([2]; human, plasma, intravenous, 25 mg/m^2, Cmax reached at the end of the 1-hour infusion): 1 h; Cmax ([2]; human, plasma, intravenous, 25 mg/m^2, amount administered to provide this Cmax, read-out: Cmax): ~226 ng/mL; Vd ([2]; human, plasma, intravenous, at steady state, read-out: volume of distribution (Vss)): 4860 L; half-life ([2]; human, plasma, iv, read-out: α-half-life): 0.0667 h; half-life ([2]; human, plasma, iv, read-out: β-half-life (converted)): 2 h; half-life ([2]; human, plasma, iv, read-out: γ-half-life (converted)): 95 h; Cmax ([2]; male, human, plasma, 25 mg/m2, intravenous 25 mg/m^2 every 3 weeks, patients with metastatic prostate cancer, read-out: mean Cmax): 226 ng/mL; clearance ([2]; male, human, plasma, intravenous, patients with metastatic prostate cancer, CV 39%): 808 mL/min; AUC ([2]; male, human, plasma, iv, 25 mg/m2, intravenous 25 mg/m^2 every 3 weeks, patients with metastatic prostate cancer, CV 34%): 991 ng·h/mL; effect of prednisone or prednisolone on the pharmacokinetics of cabazitaxel ([2]; prednisone or prednisolone 10 mg daily): does not affect; metabolic pathway [3]: primarily metabolized through CYP3A
